Reference: patent US7105656B2, “Compositions and methods for treating hematologic malignancies and multiple drug resistance” (The Brigham and Women's Hospital, Inc., priority 2000, dated 2006)

Key:
[1] = biological target: T1, SUMO-1 (Homo sapiens, UniProt P63165); assay: sumo-1 antisense oligonucleotides, induction of HIF-1 in hypoxia; assay type: cell-based
T1 construct: endogenous in cells
Text: Posttranslational SUMOlation influences HIF-1α regulated gene expression. In order to test that HIF-1 is SUMO-1 modified, we conducted experiments which indicated an association of HIF-1α both with endogenous as well as epitope (hexahistidine)-tagged SUMO-1 HIF-1α induction was rapid and was detected by immunopecipitating SUMO-1. To further investigate the impact of SUMOlation on HIF-1 conveyed gene expression, we designed antisense oligonucleotides AS31(SEQ ID NO: 22), AS64 (SEQ ID NO: 23), and AS617 (SEQ ID NO: 24) directed against SUMO-1. […] Thus, we were able to modify the HIF-1 conveyed hypoxia adaptive response by administration of sumo-1 antisense oligonucleotides.

[2] = tested on: KB cells; assay: Multicellular spheroid model, doxorubicin toxicity by BCECF labeling; assay type: cell-based; conditions: doxorubicin 1 μM
Method: Multicellular spheroid model: A multicellular spheroid model was developed using KB cells grown at high density of membrane permeable supports. Briefly, KB cells in suspension were plated at high density (˜10^7 cells/cm^2) on 0.33 cm^2 collagen-coated permeable supports (Corning-Costar, Cambridge, Ma.) and allowed to grow as domes on these substrates for two weeks. Media was replaced every other day and at two weeks, multicellular spheroids were subjected to a 24 or 48 hr period of hypoxia or normoxia, in the presence or absence of the P-glycoprotein substrate doxorubicin (1 μM final concentration) (Sigma, St Louis, Mo.). At the termination of the experiment, the number of viable, intact cells was determined by measurement of the amount of esterase cleavable fluorescent marker 2′7′-bis(carboxyethyl)-5(6)-carboxyfluorescein pentaacetoxymethyl ester (BCECF-AM, 5 μM final concentration Calbiochem, San Diego, Calif.) retained over a 30 min period, a sensitive measurement cytoxicity) (Wierda et al., J. Immunol. […] Multicellular spheroids were washed three times in HBSS and fluorescence intensity was measured on a fluorescent plate reader. […]

[3] = tested on: mdr1 gene; assay: Genechip expression array screen of epithelial cells for mdr1 induction; assay type: cell-based, human; conditions: T84 epithelial cells, exposure similar to hypoxia (6 and 18 hrs)
Method: Analysis of messenger RNA levels by RT-PCR: The transcriptional profile of epithelial cells exposed to ambient hypoxia was assessed in RNA derived from control or hypoxic epithelia (T84 cells at 6 or 18 hr hypoxia) using quantitative genechip expression arrays (Affymetrix, Inc., Santa Clara, Calif.) (Lockhart et al., Nat. Biotechnol., 14, 1675–1680, 1996). RT-PCR analysis of mRNA levels was performed using DNAse treated total RNA as previously described (Taylor et al., J. Biol. Chem., 274, 19447–19450, 1999) using primers specific for mdr1 (forward primer 5′-AACGGAAGCCAGAACATTCC-3′ (SEQ ID NO: 37) and reverse primer 5′-AGGCTTCCTGTGGCAAAGAG-3′ (SEQ ID NO: 38), 180 bp fragment), HIF-1α (forward primer 5′- CTCAAAGTCGGACAGCCTCA-3′ (SEQ ID NO: 39) and reverse primer 5′-CCCTGCAGTAGGTTTCTGCT -3′ (SEQ ID NO: 40), 460 bp fragment) or control β-actin (forward primer 5′-ATGACTTCCAAGCTGGCCGTGGCT-3′ (SEQ ID NO: 41) and antisense primer 5′-TCTCAGCCCTCTTCAAAAACTTCTC-3′ (SEQ ID NO: 42), 661 bp fragment). Each primer set was amplified using 25 cycles, unless otherwise noted, of 94° C. for 1 min, 60° C. for 2 min, 72° C. for 4 min, and a final extension of […] for 7 min. The PCR reactions were then visualized on a 1.5% agarose gel containing 5 μg/ml of ethidium bromide. […]

T1 sequence (P63165 1-97 limits assumed): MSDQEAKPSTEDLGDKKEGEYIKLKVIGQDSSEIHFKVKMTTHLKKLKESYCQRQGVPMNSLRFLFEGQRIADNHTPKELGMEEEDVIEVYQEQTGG

Row | Molecule | induction of HIF-1 in hypoxia [1] | further results
1 | AS31: antisense oligonucleotide directed against SUMO-1 (antisense CACAGCAGCGGCCTCGGGTA; chemistry not given here) | able to modify the induction of HIF-1 in hypoxia | 
2 | COc1cccc2c1C(=O)c1c(O)c3c(c(O)c1C2=O)C[C@@](O)(C(=O)CO)C[C@@H]3O[C@H]1C[C@H](N)[C@H](O)[C@H](C)O1 [doxorubicin] |  | degree of cell death (number of intact cells, BCECF labeling) ([2]; 24 hr hypoxia vs normoxia, p<0.01): significantly decreased; degree of cell death (number of intact cells, BCECF labeling) ([2]; 48 hr hypoxia vs normoxia, p<0.001): significantly decreased
3 | AS64: antisense oligonucleotide directed against SUMO-1 (antisense CATGATGACGGTGGCTTCAC; listed as DNA, chemistry not given here) | able to modify the induction of HIF-1 in hypoxia | 
4 | AS617: antisense oligonucleotide directed against SUMO-1 (antisense GTGACCTCTCTGTGCACACG; listed as DNA, chemistry not given here) | able to modify the induction of HIF-1 in hypoxia | 
5 | IFN-γ: proinflammatory cytokine (protein, UniProt P01579 24-161, looked up) Interferon gamma: QDPYVKEAENLKKYFNAGHSDVADNGTLFLGILKNWKEESDRKIMQSQIVSFYFKLFKNFKDDQSIQKSVETIKEDMNVKFFNSNKKKRDDFEKLTNYSVTDLNVQRKAIHELIQVMAELSPAAKTGKRKRSQMLFRG |  | induction of mdr1 [3]: did not induce mdr1
